In US12410187B2, “Fused tricyclic compounds useful as anticancer agents” (ASTRAZENECA AB, priority 2019, dated 2025):
Where two headings read alike, the source gives them in different places.

Columns and labels:
[1] = target: T1, KRasG12C (Homo sapiens, UniProt P01116, G12C); test: KRasG12C functional assay (HTRF/FRET nucleotide exchange and Raf RBD binding); format: biochemical; conditions: samples incubated for 4 hrs, FRET readout, single experiment or average of two or more
T1 construct: biotin (biotinylated); made in house
Description: All enzyme and substrate solutions were prepared in assay buffer containing 20 mM HEPES (pH 7.5), 5 mM MgCl2, 150 mM NaCl, and 0.01% Tween 20. […] In a separate mix 20 nM GST-Raf Ras binding domain (GST-Raf RBD, purified in house) and 4 μg/ml anti-GST XL665 antibody (Cisbio) was prepared in assay buffer containing 50 mM Potassium Fluoride and 0.05 mg/ml BSA and equilibrated for 4 hours before adding 0.6 μM Guanosine 5′-[γ-thio]triphosphate (GTPγS, Sigma) and 0.08 μM SOS (purified in house). 5 μl of the GST-RAF RBD mix was then dispensed into each well of the assay plate. […] This is detected simultaneously via the specific binding interaction between active GTPγS KRas^G12C with GST-Raf RBD which brings the europium and XL665 into close proximity enabling an increased FRET signal to be detected on a Pherastar (BMG) plate reader equipped with the HTRF filter module. […] IC50 values were calculated from normalised dose-response response FRET data curve fitted in Genedata screener (Basel, Switzerland).

[2] = tested on: MDR1 (Pgp) and BCRP; test: Blood brain barrier penetrant assessment: efflux ratio in MDCK_MDR1_BCRP cells; format: in vitro ADME; conditions: human, MDCK cells doubly transfected with MDR1 (Pgp) and BCRP, ratio of 2 or less = potential for good BBB penetration, read-out: Hu MDCK-MDR1-BCRP (0.1 uM) Mean Efflux Ratio
Description: In order to evaluate blood brain barrier (BBB) penetrant properties the efflux properties of compounds according to the specification was measured in cells transfected with the major efflux pumps expressed in the endothelial cells of the BBB. The assessment of efflux properties was performed using Madin-Darby Canine Kidney (MDCK) cells doubly transfected with MDR1 (Pgp) and BCRP. The transfected cell line, MDCK_MDR1_BCRP, thus expresses the two main efflux pumps that actively serve to exclude transit of compounds across the BBB and the efflux ration from these cell can be measured as described in the literature (Durant et al, Sci. Adv. 2018; eeat:1719). A compound that has an efflux ratio of 2 or less as measured by this technique is identified as having the potential for good BBB penetrant properties (Colclough et al, Drug Disc. Today 2019; 24(5), 1067-73).

[3] = GDP loaded biotinylated KRasG12C, read-out: KRasG12C functional assay IC50
[4] = KRasG12C functional assay IC50, GDP loaded biotinylated KRasG12C

T1 sequence (P01116 1-188 isoform P01116-2 G12C): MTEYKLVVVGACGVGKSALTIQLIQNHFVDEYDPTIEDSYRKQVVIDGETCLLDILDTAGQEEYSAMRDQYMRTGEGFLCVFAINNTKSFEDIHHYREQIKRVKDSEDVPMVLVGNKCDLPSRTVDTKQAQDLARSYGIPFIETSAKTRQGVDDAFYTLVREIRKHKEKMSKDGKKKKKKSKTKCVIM

SMILES	IC50 [1, 3] [nM]	efflux ratio at 0.1 uM [2]	IC50 [1, 4] [nM]
C=CC(=O)N1CCN2Cc3cc(Cl)c(-c4c(O)cccc4F)c(Cl)c3OC[C@H]2C1 (single isomer, unassigned) [Example 27]	24	0.8	
C=CC(=O)N1CCN2Cc3cc(F)c(-c4c(O)cccc4C(F)F)c(F)c3OC[C@H]2C1 (single isomer, unassigned) [Example 53]	660	1.5	
C=CC(=O)N1CCN2Cc3cc(F)c(-c4c(O)cccc4C(F)(F)F)c(F)c3OC[C@H]2C1 (single isomer, unassigned) [Example 49]	65	0.9	
C=CC(=O)N1CCN2Cc3cc(F)c(-c4c(C)cccc4O)c(F)c3OC[C@H]2C1 (single isomer, unassigned) [Example 44]			> 100000
C=CC(=O)N1CCN2Cc3cc(OC)c(-c4c(O)cccc4F)c(Cl)c3OC[C@H]2C1 (single isomer, unassigned) [Example 30]	90500		
C=CC(=O)N1CCN2C(=O)c3cc(C)c(-c4c(O)cccc4F)c(Cl)c3OC[C@H]2C1 (single isomer, unassigned) [Example 24]	43800		
C=CC(=O)N1CCN2Cc3cc(F)c(-c4c(C)ccc5cc[nH]c(=O)c45)c(Cl)c3OC[C@H]2C1 (single isomer, unassigned) [Example 28]	17000		
C=CC(=O)N1CCN2Cc3cc(OC)c(-c4c(O)cccc4F)c(Cl)c3OC[C@H]2C1 (single isomer, unassigned) [Example 31]	279		
C=CC(=O)N1CCN2Cc3c(-n4ccnc4)cc(-c4c(O)cccc4F)c(Cl)c3OC[C@H]2C1 [Example 15, 1-[(12aR)-10-Chloro-9-(2-fluoro-6-hydroxyphenyl)-7-(1H-imidazol-1-yl)-3,4,12,12a-tetrahydro-6H-pyrazino[2,1-c][1,4]benzoxazepin-2(1H)-yl]prop-2-en-1-one]	1280		
C=CC(=O)N1CCN2C(=O)c3cc(Cl)c(-c4c(O)cccc4F)c(Cl)c3OC[C@H]2C1 (single isomer, unassigned) [Example 21]	12900		
C=CC(=O)N1CCN2C(=O)c3ccc(-c4c(C)ccc5[nH]ncc45)c(Cl)c3NC[C@H]2C1 (single isomer, unassigned) [Example 33]	998		
C=CC(=O)N1CCN2Cc3cc(Cl)c(-c4c(O)cccc4F)c(Cl)c3OC[C@H]2C1 (single isomer, unassigned) [Example 26]	1000		
C=CC(=O)N1CCN2Cc3c(OC)cc(-c4c(O)cccc4F)c(Cl)c3OC[C@H]2C1 [Example 5, 1-[(12aR)-10-Chloro-9-(2-fluoro-6-hydroxyphenyl)-7-methoxy-3,4,12,12a-tetrahydro-6H-pyrazino[2,1-c][1,4]benzoxazepin-2(1H)-yl]prop-2-en-1-one]	157		
C=CC(=O)N1CCN2Cc3cc(C#N)c(-c4c(O)cccc4Cl)c(Cl)c3OC[C@H]2C1 (single isomer, unassigned) [Example 56]	1700		
C=CC(=O)N1CCN2Cc3cc(C#N)c(-c4c(C)cccc4O)c(Cl)c3OC[C@H]2C1 (single isomer, unassigned) [Example 40]	4620		
C=CC(=O)N1CCN2Cc3cc(F)c(-c4c(O)cccc4C(F)F)c(F)c3OC[C@H]2C1 (single isomer, unassigned) [Example 52]	> 100000		
C=CC(=O)N1CCN2C(=O)c3ccc(-c4c(C)ccc5[nH]ncc45)c(Cl)c3OC[C@H]2C1 (single isomer, unassigned) [Example 7]			82000
C=CC(=O)N1CCN2Cc3cc(C#N)c(-c4c(C)cccc4O)c(Cl)c3OC[C@H]2C1 (single isomer, unassigned) [Example 41]	180		
C=CC(=O)N1CCN2Cc3cc(F)c(-c4c(F)cccc4CO)c(F)c3OC[C@H]2C1 (single isomer, unassigned) [Example 47]	1720		
C=CC(=O)N1CCN2Cc3cc(C#N)c(-c4c(O)cccc4F)c(Cl)c3OC[C@H]2C1 (single isomer, unassigned) [Example 23]	105		
C=CC(=O)N1CCN2Cc3cc(C#N)c(-c4c(O)cccc4Cl)c(F)c3OC[C@H]2C1 (single isomer, unassigned) [Example 54]			339
C=CC(=O)N1CCN2Cc3cc(F)c(-c4c(C)ccc5cc[nH]c(=O)c45)c(Cl)c3OC[C@H]2C1 (single isomer, unassigned) [Example 29]	164		
C=CC(=O)N1CCN2Cc3cc(C#N)c(-c4c(O)cccc4Cl)c(F)c3OC[C@H]2C1 (single isomer, unassigned) [Example 55]			16
C=CC(=O)N1CCN2Cc3c(O)c(Cl)c(-c4c(O)cccc4F)c(Cl)c3OC[C@H]2C1 (single isomer, unassigned) [Example 14]	8190		
C=CC(=O)N1CCN2C(=O)c3cc(C)c(-c4c(O)cccc4F)c(Cl)c3OC[C@H]2C1 (single isomer, unassigned) [Example 25]	68		
C=CC(=O)N1CCN2Cc3cc(F)c(-c4c(F)cccc4CO)c(F)c3OC[C@H]2C1 (single isomer, unassigned) [Example 46]	99500		
C=CC(=O)N1CCN2C(=O)c3ccc(-c4c(C)ccc5[nH]ncc45)c(Cl)c3OC[C@@H]2C1 (single isomer, unassigned) [Example 1]			73000
C=CC(=O)N1CCN2C(=O)c3ccc(-c4c(C)ccc5[nH]ncc45)c(Cl)c3N(C)C[C@H]2C1 (single isomer, unassigned) [Example 37]	273		

Continued, values first:

IC50 [1, 3] [nM]	efflux ratio at 0.1 uM [2]	IC50 [1, 4] [nM]	SMILES
	0.8	18.6	C#Cc1cc2c(c(F)c1-c1c(O)cccc1Cl)OC[C@H]1CN(C(=O)C=C)CCN1C2 (single isomer, unassigned) [Example 76]
19.3	0.7		C#Cc1cc2c(c(Cl)c1-c1c(O)cccc1Cl)OC[C@H]1CN(C(=O)C=C)CCN1C2 [Example 78, 1-[(12aR)-10-Chloro-9-(2-chloro-6-hydroxyphenyl)-8-ethynyl-3,4,12,12a-tetrahydro-6H-pyrazino[2,1-c][1,4]benzoxazepin-2(1H)-yl]prop-2-en-1-one]
30			C=CC(=O)N1CCN2Cc3c(C#CC)nc(-c4c(O)cccc4Cl)c(Cl)c3OC[C@H]2C1 (single isomer, unassigned) [Example 118]
		80	C=CC(=O)N1CCN2Cc3cc(OC4CC4)c(-c4c(O)cccc4Cl)c(F)c3OC[C@H]2C1 (single isomer, unassigned) [Example 100]
61			C=CC(=O)N1CCN2Cc3c(c(Cl)c(-c4c(O)cccc4Cl)c4ncn(C)c34)OC[C@H]2C1 (single isomer, unassigned) [Example 82]
15700			C#Cc1c2c(cc(Cl)c1-c1c(C)cccc1O)CN1CCN(C(=O)C=C)C[C@@H]1CO2 (single isomer, unassigned) [Example 62]
618			C=CC(=O)N1CCN2Cc3c(c(Cl)c(-c4c(O)cccc4F)[nH]c3=O)OC[C@H]2C1 [Example 69, (6aR)-4-Chloro-3-(2-fluoro-6-hydroxyphenyl)-8-(prop-2-enoyl)-2,6,6a,7,8,9,10,12-octahydro-1H-pyrazino[2,1-c]pyrido[3,4-f][1,4]oxazepin-1-one]
11			C=CC(=O)N1CCN2Cc3cc(OC(F)F)c(-c4c(O)cccc4Cl)c(Cl)c3OC[C@H]2C1 (single isomer, unassigned) [Example 98]
133			C=CC(=O)N1CCN2Cc3c(c(Cl)c(-c4c(O)cccc4F)c4cnn(C)c34)OC[C@H]2C1 (single isomer, unassigned) [Example 72]
539			C=CC(=O)N1CCN2Cc3c(c(Cl)c(-c4c(O)cccc4F)n4cnnc34)OC[C@H]2C1 (single isomer, unassigned) [Example 71]
11800			C=CC(=O)N1CCN2Cc3cc(F)c(-c4c(O)cccc4Br)c(F)c3OC[C@H]2C1 (single isomer, unassigned) [Example 58]
37100			C#Cc1c2c(cc(F)c1-c1c(C)cccc1O)CN1CCN(C(=O)C=C)C[C@@H]1CO2 (single isomer, unassigned) [Example 64]
50800			C=CC(=O)N1CCN2Cc3c(c(Cl)c(-c4c(O)cccc4F)c4cn(C)nc34)OC[C@H]2C1 (single isomer, unassigned) [Example 75]
120			C#Cc1c2c(cc(Cl)c1-c1c(C)cccc1O)CN1CCN(C(=O)C=C)C[C@@H]1CO2 (single isomer, unassigned) [Example 63]
55			C=CC(=O)N1CCN2Cc3c(OCCN(C)C)cc(-c4c(O)cccc4Cl)c(F)c3OC[C@H]2C1 (single isomer, unassigned) [Example 115]
